Measured values: patent US12018096B2, “Potent peptide inhibitors of protein aggregation” (COUNCIL OF SCIENTIFIC & INDUSTRIAL RESEARCH, priority 2017, dated 2024)
Entries after “also recorded” stand apart in the source; their conditions may differ. No end group written: not given here.

Key:
α-syn = molecular target: T1, α-syn (Homo sapiens, UniProt P37840); assay: In vitro fibrillation assay (Thioflavin T fluorescence); assay type: biochemical; details: α-syn 400 μM, purified peptide at equimolar concentration, 37° C., 900 rpm
T1 construct: His6 (N); made in house; host or cells: E. coli Rossetta (DE3), pET29a based expression vector
Protocol: ThT is a fluorescent dye which is known to bind specifically to […] rich fibrils, and such binding further increases its fluorescence intensity. The fibrillation assay was carried out with α-syn in the presence and absence of above identified interacting phages.
The N-terminal His6-tagged human wild-type α-syn was expressed in E. coli Rossetta (DE3) (#70954 Novagen) using pET29a based expression vector. After IPTG induction bacterial cell pellets were harvested by centrifugation and resuspended in 10 mM Tris-HCl, pH 8.0, 1 mM EDTA, 1 mM Pierce protease inhibitor cocktail. […] Briefly, cell lysis was carried out by sonication, lysate was boiled at 95° C. for 30 minutes, followed by centrifugation at 10,000×g for 30 minutes at 4° C. […] Protein was quantitated using BCA protein estimation kit as per manufacturer's protocol (#23227 Thermo Scientific).
Thioflavin T (ThT) (4 mM) was added to 400 μM of purified α-syn with and without phages (10^11) or purified peptides at equimolar concentration in a 96 microwell plate. The plate was incubated at 37° C. with a shaking speed of 900 rpm in linear mode in a multimode plate reader (TECAN infinite M200 PRO). Fluorescence kinetics was measured after every 15 minutes with emission wavelength of 482 nm upon excitation at 442 nm. […]

[1] = test system: Rat phaeochromocytoma (PC12) cells; assay: MTT assay with PC12 cells; assay type: cell-based
Protocol: MTT ((3-(4,5-Dimethylthiazol-2-yl)-2,5-diphenyltetrazolium bromide)) cell toxicity experiments were performed using Rat phaeochromocytoma (PC12) neuronal-like cells to assess toxicity of α-syn and the protective effects of the Pep.2 and CycPep.2 generated in this study. MTT assay (FIG. 5) was performed with PC12 cells incubated with α-syn fibrillation end products in presence and absence of peptides. […] However, with similar concentration of α-syn, the presence of Pep.2 and CycPep.2 improved cellular viability by 30% and >99% respectively.
MTT experiments were performed using Rat phaeochromocytoma (PC12) cells to assess cytotoxic effect of α-syn. Inhibition of PC12 cell redox activity is specific and early indicator of cell death. In MTT assay, water soluble MTT dye (3-(4, 5-dimethylthiazol-2-yl)-2,5-diphenyltetrazolium bromide) (#M2003 Sigma-Aldrich) is converted to formazan, and the conversion is monitored via absorbance measurement at 570 nm. The conversion of the MTT dye to formazan is dependent of redox status of the cell and thus the change in absorbance can be used as an indicator of the cellular viability in the assay.
PC12 cells were maintained in growth media RPMI 1640 supplemented with 10% horse serum, 5% fetal bovine serum, and antibiotics penicillin and streptomycin. […] The absorbance was measured at 570 nm using a multimode plate reader (TECAN infinite M200 PRO). […]

Substance	inhibition of α-syn fibrillation (ThT fluorescence) (α-syn)	α-syn associated toxicity in PC12 cells (absorbance at 570 nm) ([1]; 10 μM α-syn with peptide in equimolar ratio, 24 hours)	improved cellular viability in presence of α-syn ([1]; PC12 cells, α-syn fibrillation end products with peptide in equimolar ratio, 24 h, α-syn alone gives loss of viability by about 50%) [%]
Pep.2d: SEQ ID NO 1; truncated derivative of Pep.2 (HHHH; Sequence retrieved through Sequence logo)	inhibits α-syn fibrillation; also recorded: able to reduce α-syn fibrillation comparable with Pep.2	–	–
Pep.2: SEQ ID NO 2; parent peptide identified from phage display against α-syn (Ac-SACNHHHHLHCGG; not fully specified; cysteine pairing not given here)	–	reduced α-syn associated toxicity	30
